# Read-outs that look alike come from different tables or passages of the source. Marks after values point to notes of the source that are not given here.
# B1: rhCYP3A5 (Homo sapiens) (protein)
# chain: MDLIPNLAVETWLLLAVSLVLLYLYGTRTHGLFKRLGIPGPTPLPLLGNVLSYRQGLWKFDTECYKKYGKMWGTYEGQLPVLAITDPDVIRTVLVKECYSVFTNRRSLGPVGFMKSAISLAEDEEWKRIRSLLSPTFTSGKLKEMFPIIAQYGDVLVRNLRREAEKGKPVTLKDIFGAYSMDVITGTSFGVNIDSLNNPQDPFVESTKKFLKFGFLDPLFLSIILFPFLTPVFEALNVSLFPKDTINFLSKSVNRMKKSRLNDKQKHRLDFLQLMIDSQNSKETESHKALSDLELAAQSIIFIFAGYETTSSVLSFTLYELATHPDVQQKLQKEIDAVLPNKAPPTYDAVVQMEYLDMVVNETLRLFPVAIRLERTCKKDVEINGVFIPKGSMVVIPTYALHHDPKYWTEPEEFRPERFSKKKDSIDPYIYTPFGTGPRNCIGMRFALMNMKLALIRVLQNFSFKPCKETQIPLKLDTQGLLQPEKPIVLKVDSRDGTLSGE
# notes: purchased BD Biosciences/Corning
# Legend:
# [1] = cited from earlier work
# CYP3A5 [2] = target: T1, CYP3A5 (Homo sapiens, UniProt P20815); conditions: cited from earlier work
# CYP3A = conditions: cited from earlier work
# [3] = tested on: human liver microsomes (HLM, Xenotech); conditions: cited from earlier work
# [4] = Eplerenone metabolism via pooled human liver microsomes (HLM150); format: in vitro ADME; conditions: human, pooled human liver microsomes (HLM150, 150 donors), HLM 150, Corning/BD
# [5] = tested on: human liver microsomes (HLM150); assay: as above; format: in vitro ADME; conditions: for Vmax: HLM 150, Corning/BD
# plasma protein = conditions: cited from earlier work; for Protein binding %: Table of Tyrosine Kinase Inhibitor Substrates
# [6] = cited from earlier work; for T½: Table of Tyrosine Kinase Inhibitor Substrates
# [7] = cited from earlier work; for F %: Table of Tyrosine Kinase Inhibitor Substrates, CYP3A4
# CYP3A5 [8] = target: T1, CYP3A5; assay: Tacrolimus metabolism by rhCYP3A5 (Kamdem et al. 2005); format: in vitro ADME; conditions: rhCYP3A5 vs rhCYP3A4
# [9] = substrate: COC(=O)[C@@H]1CC2=CC(=O)CC[C@]2(C)[C@@]23O[C@@H]2C[C@@]2(C)[C@@H](CC[C@@]24CCC(=O)O4)[C@H]13; assay: cells, lysate or membranes named; format: in vitro ADME, human
molecule,measurement,setting,value
"COC(=O)[C@H]1[C@H]2[C@@H]3CC[C@@]4(CCC(=O)O4)[C@@]3(C)C[C@H]3O[C@@]23[C@@]2(C)CCC(=O)C=C2[C@@H]1O [6OH-EP, 6β-hydroxyeplerenone]",Compound Type,[1]; SimCYP model parameter,Neutral
same,Blood/plasma ratio,[1],1
"COC(=O)[C@@H]1CC2=CC(=O)CC[C@]2(C)[C@@]23O[C@@H]2C[C@@]2(C)[C@@H](CC[C@@]24CC(O)C(=O)O4)[C@H]13 (stereo partly drawn) [21OH-EP, 21-hydroxyeplerenone]",Compound Type,[1]; SimCYP model parameter,Neutral
same,Blood/plasma ratio,[1],1
Cc1nnc2n1-c1ccc(Cl)cc1C(c1ccccc1)=NC2 [Alprazolam],CYP3A5 (% Metabolism),CYP3A5 [2],<10%
same,All CYP3A (% Metabolism),CYP3A,62%
COC(=O)[C@@H]1CC2=CC(=O)CC[C@]2(C)[C@@]23O[C@@H]2C[C@@]2(C)[C@@H](CC[C@@]24CCC(=O)O4)[C@H]13 [Eplerenone],Km,[3]; 6β-OH metabolite formation,217 µM
same,Vmax,[3]; 6β-OH metabolite formation,973 pmol/min/mg
same,Km,[3]; 21-OH metabolite formation,211 µM
same,Vmax,[3]; 21-OH metabolite formation,143 pmol/min/mg
same,Km at 10 min,[4]; 6β-OH metabolite formation,473 µM
same,Km at 10 min,[4]; 21-OH metabolite formation,197 µM
same,Vmax,[5]; 6β-OH metabolite formation,1493 pmol/min/mg
same,Vmax,[5]; 21-OH metabolite formation,216 pmol/min/mg
same,ISEF for recombinant CYP3A4/5,"[5]; HLM 150 vs rhCYP3A4 and rhCYP3A5 clearances, Eq. 1",1.0
same,Permeability model Caco-2,[1]; Caco-2,Caco-2 (24* 10^−6 cm/s)
same,Compound Type,[1]; SimCYP model parameter,Neutral
same,ka,[1]; SimCYP model parameter,1.647 h⁻¹
C#Cc1cccc(Nc2ncnc3cc(OCCOC)c(OCCOC)cc23)c1 [Erlotinib],Protein binding %,plasma protein,95%
COc1cc2ncnc(Nc3ccc(F)c(Cl)c3)c2cc1OCCCN1CCOCC1 [Gefitinib],Protein binding %,plasma protein,90%
same,T½,[6],6 to 49 h
same,F %,[7],59%
CN1C(C(=O)Nc2ccccn2)=C(O)c2sc(Cl)cc2S1(=O)=O [Lomoxicam],HALF LIFE,[6]; in vivo,4 h
same,BIOAVAILABILITY IM,"[7]; in vivo, im",IM: 87%
Cc1cccc(C)c1OCC(C)N (stereo not drawn) [Mexiletine],HALF LIFE,[6]; Table CYP1A2,10 to 12 h
same,HALF LIFE,[6]; Table CYP2D6,6 to 17 h
same,ORAL BIOAVAILABILITY,[7]; Table CYP2D6,80-90% ^
Cc1ncc2n1-c1ccc(Cl)cc1C(c1ccccc1F)=NC2 [Midazolam],CYP3A5 (% Metabolism),CYP3A5 [2],43%
same,AUC fold higher than average,CYP3A4/5,2.3 fold
same,AUC fold lower than the mean,CYP3A4/5,4.1 fold
same,All CYP3A (% Metabolism),CYP3A,92%
CC(C)(O)c1ccccc1CC[C@@H](SCC1(CC(=O)O)CC1)c1cccc(/C=C/c2ccc3ccc(Cl)cc3n2)c1 [Montelukast],PLASMA PROTEIN BINDING,plasma protein; Table CYP2C9,>99%
same,HALF LIFE,[6]; Table CYP2C9,2.7 to 5.5 h
same,ORAL BIOAVAILABILITY,[7]; Table CYP2C9,64-73% ^
OC(CNCC(O)C1CCc2cc(F)ccc2O1)C1CCc2cc(F)ccc2O1 (stereo not drawn) [Nebivolol],HALF LIFE,[6]; Table CYP2D6,12 to 19 h
same,ORAL BIOAVAILABILITY,[7]; Table CYP2D6,12-96% ^
[H]/N=C(/N)N/C(=N/[H])NCCc1ccccc1 [Phenformin],HALF LIFE,[6]; Table CYP2D6,4 to 13 h
same,ORAL BIOAVAILABILITY,[7]; Table CYP2D6,40-60% ^
O=C1NC(=O)C(c2ccccc2)(c2ccccc2)N1 [Phenytoin],HALF LIFE,[6]; Table CYP2C9,14 to 22 h
same,ORAL BIOAVAILABILITY,[7]; Table CYP2C9,20-90% ^
CC(=O)[C@H]1CC[C@H]2[C@@H]3CCC4=CC(=O)CC[C@]4(C)[C@H]3CC[C@]12C [Progesterone],PLASMA PROTEIN BINDING,plasma protein; Table CYP2C19,96-99% ^
CC(C)NCC(O)COc1cccc2ccccc12 (stereo not drawn) [Propranolol],HALF LIFE,[6]; Table CYP2D6,3 to 6 h
same,ORAL BIOAVAILABILITY,[7]; Table CYP2D6,30-70% ^
C=C[C@H]1C[N@@]2CC[C@H]1C[C@@H]2[C@@H](O)c1ccnc2ccc(OC)cc12 [Quinidine],ORAL BIOAVAILABILITY,[7]; Table CYP3A4,70-80% ^
same,All CYP3A (% Metabolism),CYP3A,93%
CCCN1CCCC[C@H]1C(=O)Nc1c(C)cccc1C [Ropivacaine],HALF LIFE,[6]; Table CYP1A2,5 to 7 h
same,ORAL BIOAVAILABILITY,"[7]; Table CYP1A2, printed as IV",87-98% - IV
CC(C)(C)NC(=O)[C@@H]1C[C@@H]2CCCC[C@@H]2CN1C[C@@H](O)[C@H](Cc1ccccc1)NC(=O)[C@H](CC(N)=O)NC(=O)c1ccc2ccccc2n1 [Saquinavir],CYP3A5 (% Metabolism),CYP3A5 [2],11%
same,All CYP3A (% Metabolism),CYP3A,99%
CCN(CC)CCNC(=O)c1c(C)[nH]c(/C=C2\C(=O)Nc3ccc(F)cc32)c1C [Sunitinib],Protein binding %,plasma protein,95%
same,T½,[6],40 to 60 h
same,F %,[7],50%
CCCCCc1cc(O)c2c(c1)OC(C)(C)[C@@H]1CCC(C)=C[C@@H]21 [THC],HALF LIFE,[6]; Table CYP2C9,1.6 to 59 h
same,ORAL BIOAVAILABILITY,[7]; Table CYP2C9,10-35% ^
C=CC[C@@H]1/C=C(\C)C[C@H](C)C[C@H](OC)[C@H]2O[C@@](O)(C(=O)C(=O)N3CCCC[C@H]3C(=O)O[C@H](/C(C)=C/[C@@H]3CC[C@@H](O)[C@H](OC)C3)[C@H](C)[C@@H](O)CC1=O)[C@H](C)C[C@@H]2OC [Tacrolimus],higher catalytic efficiency via CYP3A5,CYP3A5 [8],60%
same,ORAL BIOAVAILABILITY,[7]; Table CYP3A4,17-31% ^
Cc1nnc2n1-c1ccc(Cl)cc1C(c1ccccc1Cl)=NC2 [Triazolam],CYP3A5 (% Metabolism),CYP3A5 [2],25%
same,All CYP3A (% Metabolism),CYP3A,92%
Cc1ccc(Nc2nccc(N(C)c3ccc4c(C)n(C)nc4c3)n2)cc1S(N)(=O)=O [pazopanib],Protein binding %,plasma protein,>99.5%
same,T½,[6],30.9 to 31.9 h
same,F %,[7],14-21%
CNC(=O)c1cc(Oc2ccc(NC(=O)Nc3ccc(Cl)c(C(F)(F)F)c3)cc2)ccn1 [sorafenib],Protein binding %,plasma protein,99.5%
same,T½,[6],25 to 48 h
same,F %,[7],38-49%
B1,Km,"[9]; other: 6β-OH metabolite formation, rhCYP3A5 (printed rhCYPA5)",142 mcM
same,Km,"[9]; other: 21-OH metabolite formation, rhCYP3A5",72 mcM

# — patent US11747352B2 (Concordia University, Inc., priority 2017, dated 2023)
